Test results: patent US9624170B2, “4-(piperrazin-1-yl)-pyrrolidin-2-one compounds as monoacylglycerol lipase (MAGL) inhibitors” (TAKEDA PHARMACEUTICAL COMPANY LIMITED, priority 2013, dated 2017)

molecular target: T1, human MAGL (His-hMAGL) (Homo sapiens, UniProt Q99685); test: Measurement of MAGL inhibitory activity by mass spectrometry; assay type: biochemical; conditions: 10 μM test compound; substrate 2-arachidonylglycerol, arachidonic acid by RapidFire-mass spectrometry
T1 construct: made in house; host or cells: Escherichia coli BL21(DE3)
T1 sequence (Q99685 1-303): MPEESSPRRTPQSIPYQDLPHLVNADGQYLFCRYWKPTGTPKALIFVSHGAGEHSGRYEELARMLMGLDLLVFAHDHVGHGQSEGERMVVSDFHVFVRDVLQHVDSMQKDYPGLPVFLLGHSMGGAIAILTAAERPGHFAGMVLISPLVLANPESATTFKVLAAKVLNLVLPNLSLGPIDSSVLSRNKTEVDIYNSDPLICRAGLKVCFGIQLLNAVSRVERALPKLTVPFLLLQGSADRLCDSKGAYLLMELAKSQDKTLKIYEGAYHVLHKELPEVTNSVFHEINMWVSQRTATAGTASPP
Description: Thereafter, to each well was added 150 μM 2-arachidonylglycerol (Tocris Bioscience) by 5 μL, and the mixture was incubated at room temperature for 10 min. Then, 2% formic acid (Wako Pure Chemical Industries, Ltd.) was added by 10 μL to discontinue the reaction. Furthermore, acetonitrile (50 μL) containing 3 μM arachidonic acid-d8 (Cayman Chemical Company) was added and the mixture was stirred. The amount of arachidonic acid in the obtained enzyme reaction mixture was calculated by measuring by RapidFire-mass spectrometry and correcting by the amount of arachidonic acid-d8. High Throughput online solid phase extraction was performed using RapidFire 300TM system (Agilent Technologies, Inc.). […] The injection needle was washed with ultrapure water (500 millisecond) and acetonitrile (500 millisecond) to minimize carry-over. […] The RapidFire300 system was controlled by RapidFire UI software version 3.6 (Agilent Technologies, Inc.). The mass spectrometry of the resultant product was performed using […] triple quadrupole mass spectrometer (AB SCIEX) equipped with an electrospray ion sauce (Turbolon SprayTM) in a negative selected reaction monitoring (SRM) mode. The conditions of SRM are shown below. The parameters of the instrument were optimized as follows: capillary temperature 600° C., ion spray voltage -4.5 kV, collision gas 8, curtain gas 15 psi, ion source gas 1 60 psi, ion source gas 2 60 psi. The mass spectrometer was controlled by AnalystTM software version 1.5.1 (AB SCIEX). The peak area integration was analyzed using RapidFire integrator software version 3.6 (Agilent Technologies, Inc.). MAGL inhibitory rate (%) was calculated according to the following calculation formula.

Structure (SMILES) | inhibition at 10 µM
Cc1ccc(-c2cccc(N3CC(N4CCN(C(=O)c5nccs5)CC4)CC3=O)c2)cc1 (centres unmarked) [Example 90, 1-(4′-methylbiphenyl-3-yl)-4-(4-(1,3-thiazol-2-ylcarbonyl)piperazin-1-yl)pyrrolidin-2-one] | 102%
Cc1cccc(-c2cccc(N3CC(N4CCN(C(=O)c5nccs5)CC4)CC3=O)c2)c1 (centres unmarked) [Example 91, 1-(3′-methylbiphenyl-3-yl)-4-(4-(1,3-thiazol-2-ylcarbonyl)piperazin-1-yl)pyrrolidin-2-one] | 102%
O=C(c1nccs1)N1CCN(C2CC(=O)N(c3cccc(-c4cccs4)c3)C2)CC1 (centres unmarked) [Example 93, 4-(4-(1,3-thiazol-2-ylcarbonyl)piperazin-1-yl)-1-(3-(2-thienyl)phenyl)pyrrolidin-2-one] | 101%
O=C(c1nccs1)N1CCN(C2CC(=O)N(c3cccc(-c4ccsc4)c3)C2)CC1 (centres unmarked) [Example 94, 4-(4-(1,3-thiazol-2-ylcarbonyl)piperazin-1-yl)-1-(3-(3-thienyl)phenyl)pyrrolidin-2-one] | 99%
CC(=O)Nc1cccc(-c2cccc(N3CC(N4CCN(C(=O)c5nccs5)CC4)CC3=O)c2)c1 (centres unmarked) [Example 95, N-(3′-(2-oxo-4-(4-(1,3-thiazol-2-ylcarbonyl)piperazin-1-yl)pyrrolidin-1-yl)biphenyl-3-yl)acetarnide] | 99%
O=C(c1nccs1)N1CCN(C2CC(=O)N(c3cccc(-c4ccoc4)c3)C2)CC1 (centres unmarked) [Example 96, 1-(3-(3-furyl)phenyl)-4-(4-(1,3-thiazol-2-ylcarbonyl)piperazin-1-yl)pyrrolidin-2-one] | 99%
CC(=O)Nc1ccc(-c2cccc(N3CC(N4CCN(C(=O)c5nccs5)CC4)CC3=O)c2)cc1 (centres unmarked) [Example 97, N-(3′-(2-oxo-4-(4-(1,3-thiazol-2-ylcarbonyl)piperazin-1-yl)pyrrolidin-1-yl)biphenyl-4-yl)acetarnide] | 97%
NC(=O)c1cccc(-c2cccc(N3CC(N4CCN(C(=O)c5nccs5)CC4)CC3=O)c2)c1 (centres unmarked) [Example 98, 3′-(2-oxo-4-(4-(1,3-thiazol-2-ylcarbonyl)piperazin-1-yl)pyrrolidin-1-yl)biphenyl-3-carboxamide] | 100%
O=C(c1nccs1)N1CCN(C2CC(=O)N(c3cccc(Cc4ccccc4)c3)C2)CC1 (centres unmarked) [Example 99, 1-(3-benzylphenyl)-4-(4-(1,3-thiazol-2-ylcarbonyl)piperazin-1-yl)pyrrolidin-2-one] | 102%
CS(=O)(=O)Nc1cccc(-c2cccc(N3CC(N4CCN(C(=O)c5nccs5)CC4)CC3=O)c2)c1 (centres unmarked) [Example 100, N-(3′-(2-oxo-4-(4-(1,3-thiazol-2-ylcarbonyl)piperazin-1-yl)pyrrolidin-1-yl)biphenyl-3-yl)methanesulfonamide] | 101%
Cn1nccc1-c1cccc(N2CC(N3CCN(C(=O)c4nccs4)CC3)CC2=O)c1 (centres unmarked) [Example 101, 1-(3-(1-methyl-1H-pyrazol-5-yl)phenyl)-4-(4-(1,3-thiazol-2-ylcarbonyl)piperazin-1-yl)pyrrolidin-2-one] | 99%
NS(=O)(=O)c1ccc(-c2cccc(N3CC(N4CCN(C(=O)c5nccs5)CC4)CC3=O)c2)cc1 (centres unmarked) [Example 102, 3′-(2-oxo-4-(4-(1,3-thiazol-2-ylcarbonyl)piperazin-1-yl)pyrrolidin-1-yl)biphenyl-4-sulfonamide] | 96%
NS(=O)(=O)c1cccc(-c2cccc(N3CC(N4CCN(C(=O)c5nccs5)CC4)CC3=O)c2)c1 (centres unmarked) [Example 103, 3′-(2-oxo-4-(4-(1,3-thiazol-2-ylcarbonyl)piperazin-1-yl)pyrrolidin-1-yl)biphenyl-3-sulfonamide] | 100%

Further lines, results first:

inhibition at 10 µM | Structure (SMILES)
95% | CNC(=O)c1ccc(-c2cccc(N3CC(N4CCN(C(=O)c5nccs5)CC4)CC3=O)c2)cc1 (centres unmarked) [Example 104, N-methyl-3′-(2-oxo-4-(4-(1,3-thiazol-2-ylcarbonyl)piperazin-1-yl)pyrrolidin-1-yl)biphenyl-4-carboxamide]
101% | O=C1Cc2cc(-c3cccc(N4CC(N5CCN(C(=O)c6nccs6)CC5)CC4=O)c3)ccc2N1 (centres unmarked) [Example 105, 5-(3-(2-oxo-4-(4-(1,3-thiazol-2-ylcarbonyl)piperazin-1-yl)pyrrolidin-1-yl)phenyl)-1,3-dihydro-2H-indol-2-one]
99% | O=C(c1nccs1)N1CCN(C2CC(=O)N(c3cccc(-c4cnn5ccccc45)c3)C2)CC1 (centres unmarked) [Example 106, 1-(3-(pyrazolo[1,5-a]pyridin-3-yl)phenyl)-4-(4-(1,3-thiazol-2-ylcarbonyl)piperazin-1-yl)pyrrolidin-2-one]
97% | O=C(c1nccs1)N1CCN(C2CC(=O)N(c3ccc4c(ccn4-c4cc(C(F)(F)F)ccn4)c3)C2)CC1 (centres unmarked) [Example 108, 4-(4-(1,3-thiazol-2-ylcarbonyl)piperazin-1-yl)-1-(1-(4-(trifluoromethyl)pyridin-2-yl)-1H-indol-5-yl)pyrrolidin-2-one]
100% | O=C(c1nccs1)N1CCN(C2CC(=O)N(c3ccc4c(ccn4-c4ccnc(C(F)(F)F)c4)c3)C2)CC1 (centres unmarked) [Example 109, 4-(4-(1,3-Thiazol-2-ylcarbonyl)piperazin-1-yl)-1-(1-(2-(trifluoromethyl)pyridin-4-yl)-1H-indol-5-yl)pyrrolidin-2-one]
99% | CS(=O)(=O)Nc1ccc(-c2cccc(N3CC(N4CCN(C(=O)c5nccs5)CC4)CC3=O)c2)cc1 (centres unmarked) [Example 110, N-(3′-(2-oxo-4-(4-(1,3-thiazol-2-ylcarbonyl)piperazin-1-yl)pyrrolidin-1-yl)biphenyl-4-yl)methanesulfonamide]
99% | O=C(c1nccs1)N1CCN(C2CC(=O)N(c3ccc4c(ccn4-c4ccc(C(F)(F)F)nc4)c3)C2)CC1 (centres unmarked) [Example 111, 4-(4-(1,3-thiazol-2-ylcarbonyl)piperazin-1-yl)-1-(1-(6-(trifluoromethyl)pyridin-3-yl)-1H-indol-5-yl)pyrrolidin-2-one]
6% | CNS(=O)(=O)c1ccc(-c2cccc(N3CC(N4CCN(C(=O)c5nccs5)CC4)CC3=O)c2)cc1 (centres unmarked) [Example 112, N-methyl-3′-(2-oxo-4-(4-(1,3-thiazol-2-ylcarbonyl)piperazin-1-yl)pyrrolidin-1-yl)biphenyl-4-sulfonamide]
80% | O=C(c1nccs1)N1CCN(C2CC(=O)N(c3ccc4[nH]ccc4c3)C2)CC1 (centres unmarked) [Example 113, 1-(1H-indol-5-yl)-4-(4-(1,3-thiazol-2-ylcarbonyl)piperazin-1-yl)pyrrolidin-2-one]
98% | O=C(c1nccs1)N1CCN(C2CC(=O)N(c3ccc4c(cnn4Cc4ccc(F)cc4)c3)C2)CC1 (centres unmarked) [Example 114, 1-(1-(4-Fluorobenzyl)-1H-indazol-5-yl)-4-(4-(1,3-thiazol-2-ylcarbonyl)piperazin-1-yl)pyrrolidin-2-one]
97% | O=C(c1nccs1)N1CCN(C2CC(=O)N(c3cccc(NC4CCCCC4)c3)C2)CC1 (centres unmarked) [Example 115, 1-(3-(cyclohexylamino)phenyl)-4-(4-(1,3-thiazol-2-ylcarbonyl)piperazin-1-yl)pyrrolidin-2-one]
99% | CC(=O)Nc1ccc(Nc2cccc(N3CC(N4CCN(C(=O)c5nccs5)CC4)CC3=O)c2)cc1 (centres unmarked) [Example 116, N-(4-((3-(2-oxo-4-(4-(1,3-thiazol-2-ylcarbonyl)piperazin-1-yl)pyrrolidin-1-yl)phenyl)amino)phenyl)acetamide]
99% | CC(=O)N(C)c1ccc(Nc2cccc(N3CC(N4CCN(C(=O)c5nccs5)CC4)CC3=O)c2)cc1 (centres unmarked) [Example 117, N-methyl-N-(4-((3-(2-oxo-4-(4-(1,3-thiazol-2-ylcarbonyl)piperazin-1-yl)pyrrolidin-1-yl)phenyl)amino)phenyl)acetamide]
99% | CC(=O)Nc1cccc(Nc2cccc(N3CC(N4CCN(C(=O)c5nccs5)CC4)CC3=O)c2)c1 (centres unmarked) [Example 118, N-(3-((3-(2-oxo-4-(4-(1,3-thiazol-2-ylcarbonyl)piperazin-1-yl)pyrrolidin-1-yl)phenyl)amino)phenyl)acetamide]
100% | O=C(c1nccs1)N1CCN(C2CC(=O)N(c3cccc(Nc4ccc(N5CCCC5=O)cc4)c3)C2)CC1 (centres unmarked) [Example 119, 1-(3-((4-(2-oxopyrrolidin-1-yl)phenyl)amino)phenyl)-4-(4-(1,3-thiazol-2-ylcarbonyl)piperazin-1-yl)pyrrolidin-2-one]
98% | O=C1COc2ccc(Nc3cccc(N4CC(N5CCN(C(=O)c6nccs6)CC5)CC4=O)c3)cc2N1 (centres unmarked) [Example 122, 6-((3-(2-oxo-4-(4-(1,3-thiazol-2-ylcarbonyl)piperazin-1-yl)pyrrolidin-1-yl)phenyl)amino)-2H-1,4-benzoxazin-3(4H)-one]
